Target: Voltage-dependent L-type calcium channel subunit alpha-1C (Cavia porcellus, UniProt O35505)
Test: Inhibition of Calcium channel in Cavia porcellus albino (guinea pig) ileocecal SMC assessed as inhibition of 80 mM KCl-induced contraction
Details: for IC30: guinea pig

Voltage-dependent L-type calcium channel subunit alpha-1C, sequence (O35505 whole entry): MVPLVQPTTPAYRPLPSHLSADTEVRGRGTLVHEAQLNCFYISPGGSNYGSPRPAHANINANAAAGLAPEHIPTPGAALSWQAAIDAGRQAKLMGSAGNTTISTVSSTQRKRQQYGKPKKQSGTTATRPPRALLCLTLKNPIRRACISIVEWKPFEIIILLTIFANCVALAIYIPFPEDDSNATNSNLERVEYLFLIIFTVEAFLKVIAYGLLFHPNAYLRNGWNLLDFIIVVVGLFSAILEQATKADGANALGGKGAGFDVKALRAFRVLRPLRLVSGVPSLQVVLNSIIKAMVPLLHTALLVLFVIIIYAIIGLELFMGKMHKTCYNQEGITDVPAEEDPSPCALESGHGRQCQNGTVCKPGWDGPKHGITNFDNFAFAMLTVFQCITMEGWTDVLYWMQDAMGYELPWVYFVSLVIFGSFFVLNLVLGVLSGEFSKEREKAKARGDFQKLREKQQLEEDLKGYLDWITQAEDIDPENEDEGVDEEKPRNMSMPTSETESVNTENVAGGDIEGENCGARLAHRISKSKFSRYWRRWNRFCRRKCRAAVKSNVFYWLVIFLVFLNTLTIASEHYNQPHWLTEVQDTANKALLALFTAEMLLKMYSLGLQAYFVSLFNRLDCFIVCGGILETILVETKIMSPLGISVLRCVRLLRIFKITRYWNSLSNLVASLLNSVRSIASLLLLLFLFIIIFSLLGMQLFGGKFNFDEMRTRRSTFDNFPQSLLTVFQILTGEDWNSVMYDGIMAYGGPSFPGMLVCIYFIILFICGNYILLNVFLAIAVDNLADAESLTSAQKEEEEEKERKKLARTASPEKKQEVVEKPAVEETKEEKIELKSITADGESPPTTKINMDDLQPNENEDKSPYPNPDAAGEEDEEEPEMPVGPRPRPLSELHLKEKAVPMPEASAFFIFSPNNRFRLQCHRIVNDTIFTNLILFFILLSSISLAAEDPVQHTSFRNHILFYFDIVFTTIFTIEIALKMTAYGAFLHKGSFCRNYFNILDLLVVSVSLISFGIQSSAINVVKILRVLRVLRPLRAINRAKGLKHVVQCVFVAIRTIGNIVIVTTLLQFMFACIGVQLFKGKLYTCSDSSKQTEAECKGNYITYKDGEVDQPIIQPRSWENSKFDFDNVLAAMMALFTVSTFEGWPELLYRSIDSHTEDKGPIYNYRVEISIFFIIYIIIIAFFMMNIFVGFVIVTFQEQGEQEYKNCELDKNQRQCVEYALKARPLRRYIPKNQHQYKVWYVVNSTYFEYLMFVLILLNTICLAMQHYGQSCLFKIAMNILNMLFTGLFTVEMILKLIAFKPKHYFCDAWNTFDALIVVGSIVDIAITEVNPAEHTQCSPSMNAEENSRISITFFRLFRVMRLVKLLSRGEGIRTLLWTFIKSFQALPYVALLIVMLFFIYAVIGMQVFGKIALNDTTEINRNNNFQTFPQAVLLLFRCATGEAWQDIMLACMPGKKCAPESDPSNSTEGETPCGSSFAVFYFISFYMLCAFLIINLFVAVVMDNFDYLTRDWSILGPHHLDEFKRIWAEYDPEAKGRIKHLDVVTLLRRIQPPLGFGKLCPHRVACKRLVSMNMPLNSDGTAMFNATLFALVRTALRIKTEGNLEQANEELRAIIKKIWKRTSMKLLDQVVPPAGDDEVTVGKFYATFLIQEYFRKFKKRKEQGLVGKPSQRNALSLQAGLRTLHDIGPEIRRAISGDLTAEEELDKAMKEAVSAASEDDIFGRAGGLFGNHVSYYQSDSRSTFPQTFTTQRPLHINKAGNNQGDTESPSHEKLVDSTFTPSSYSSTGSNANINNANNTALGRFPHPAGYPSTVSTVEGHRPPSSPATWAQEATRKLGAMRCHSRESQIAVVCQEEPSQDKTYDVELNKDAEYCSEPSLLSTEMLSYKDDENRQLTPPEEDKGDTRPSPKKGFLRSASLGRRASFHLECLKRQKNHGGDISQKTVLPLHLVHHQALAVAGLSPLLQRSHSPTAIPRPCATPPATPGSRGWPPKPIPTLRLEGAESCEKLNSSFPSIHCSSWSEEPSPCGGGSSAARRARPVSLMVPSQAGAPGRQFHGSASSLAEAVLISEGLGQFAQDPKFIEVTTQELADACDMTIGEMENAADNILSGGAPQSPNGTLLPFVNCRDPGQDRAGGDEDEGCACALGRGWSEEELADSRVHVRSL

Compound	IC50	IC30
CCOC(=O)C1=C(C)NC(C)=C(C(=O)OCC)C1c1ccc(-c2cc(=O)cc(C)o2)cc1	2.14 µM	7.2 ×10⁻⁷ M
CCOC(=O)C1=C(C)NC(C)=C(C(=O)OCC)C1c1cc(=O)cc(-c2ccccc2)o1	3.24 µM	1.01 ×10⁻⁶ M
CCOC(=O)C1=C(C)NC(C)=C(C(=O)OCC)C1c1cc(=O)cc(C)o1	35.9 µM	1.45 ×10⁻⁶ M
CCOC(=O)C1=C(C)NC(C)=C(C(=O)OC)C1c1ccc(-c2cc(=O)cc(-c3ccccc3)o2)cc1 (stereo unspecified)	94.4 µM	4.62 ×10⁻⁶ M
CCOC(=O)C1=C(C)NC(C)=C(C(=O)OC)C1c1ccc(-c2cc(=O)cc(C)o2)cc1 (stereo unspecified)	86.1 µM	4.62 ×10⁻⁶ M
CCOC(=O)C1=C(C)NC(C)=C(C(=O)OC)C1c1cc(=O)cc(-c2ccccc2)o1 (stereo unspecified)	2.03 µM	7.18 ×10⁻⁷ M
CCOC(=O)C1=C(C)NC(C)=C(C(=O)OC)C1c1cc(=O)cc(C)o1 (stereo unspecified)	1.63 µM	5.38 ×10⁻⁷ M
COC(=O)C1=C(C)NC(C)=C(C(=O)OC)C1c1ccc(-c2cc(=O)cc(-c3ccccc3)o2)cc1	4.71 µM	1.26 ×10⁻⁶ M
CCOC(=O)C1=C(C)NC(C)=C(C(=O)OCC)C1c1ccc(-c2cc(=O)cc(-c3ccccc3)o2)cc1	12.2 µM	6.12 ×10⁻⁶ M
COC(=O)C1=C(C)NC(C)=C(C(=O)OC)C1c1ccc(-c2cc(=O)cc(C)o2)cc1	17.8 µM	3.67 ×10⁻⁶ M
COC(=O)C1=C(C)NC(C)=C(C(=O)OC)C1c1ccccc1[N+](=O)[O-] [NIFEDIPINE]	–	1.6 ×10⁻⁸ M

Reference: ChEMBL document CHEMBL3046466 (Med Chem Res, 2012)
